Source: BindingDB's records for doi:10.1021/jm00008a007 (1995)

Each compound was assayed against Histamine H1 receptor (Cavia porcellus, UniProt P31389) (assay: H1-Histamine receptor agonism on Guinea pig aorta was evaluated (SEM 0.03-0.18)).
Histamine H1 receptor, sequence (P31389 whole entry): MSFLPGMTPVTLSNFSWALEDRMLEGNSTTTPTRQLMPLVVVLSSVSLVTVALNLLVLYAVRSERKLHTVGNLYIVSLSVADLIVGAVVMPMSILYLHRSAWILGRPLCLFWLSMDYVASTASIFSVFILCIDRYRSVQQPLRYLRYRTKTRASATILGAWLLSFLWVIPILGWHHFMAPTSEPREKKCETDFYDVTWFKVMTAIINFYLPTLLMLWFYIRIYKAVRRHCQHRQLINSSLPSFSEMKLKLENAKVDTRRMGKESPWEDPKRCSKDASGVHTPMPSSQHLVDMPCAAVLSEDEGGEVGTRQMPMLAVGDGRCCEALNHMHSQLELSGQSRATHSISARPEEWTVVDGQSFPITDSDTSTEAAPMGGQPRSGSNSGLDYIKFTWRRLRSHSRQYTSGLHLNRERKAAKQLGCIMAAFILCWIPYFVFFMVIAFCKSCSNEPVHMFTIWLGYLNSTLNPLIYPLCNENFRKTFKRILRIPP

| SMILES | EC50 |
| --- | --- |
| NCCc1cnc(-c2cccc(C(F)(F)F)c2)[nH]1 | 1.28 µM |
| NCCc1c[nH]c(Cc2cccs2)n1 | 147 µM |
| NCCc1c[nH]c(-c2ccc[nH]2)n1 | 10.2 µM |
| NCCc1c[nH]c(Cc2ccsc2)n1 | 128 µM |
| NCCc1c[nH]c(-c2csc(Br)c2)n1 | 11.4 µM |
| NCCc1c[nH]c(-c2ccco2)n1 | 5.37 µM |
| NCCc1nccs1 [2-(2-aminoethyl)thiazole] | 6.76 µM |

Other lines, results leading:

| EC50 | SMILES |
| --- | --- |
| 6.3 µM | NCCc1c[nH]c(-c2ccccc2)n1 |
| 9.99 µM | NCCc1c[nH]c(-c2cccs2)n1 |
| 2.57 µM | NCCc1c[nH]c(-c2cccc(I)c2)n1 |
| 6.16 µM | NCCc1c[nH]c(-c2ccsc2)n1 |
| 575 µM | NCCc1c[nH]c(Cc2ccccc2Cl)n1 |
| 288 µM | NCCc1c[nH]c(Cc2cccc(Cl)c2)n1 |
